Drawing on ChEMBL document CHEMBL1240305, “Alkylation of duplex DNA in nucleosome core particles by duocarmycin SA and yatakemycin” (Nat Chem Biol, 2006), this text covers Activity for three compounds.

Common to all, as to assay type: nucleic-acid assay
Experiment [1] concerns Nucleic Acid. Nature of the experiment: Induction of thermal cleavage in alpha satellite DNA 5'-GAAACT-3' in […] at 10 uM at 25 degC after 17 hrs by non-denaturating gel electrophoresis.
Experiment [2] concerns Nucleic Acid. Briefly: Induction of thermal cleavage in protein free alpha satellite DNA 5'-GGAAAC-3' at 10 uM at 25 degC after 17 hrs by non-denaturating gel electrophoresis.
Experiment [3] relates to Nucleic Acid. Nature of the experiment: Binding affinity to alpha satellite DNA assessed as neucleosome reconstitution after 17 hrs at 25 degC by non-denaturating gel electrophoresis.
Experiment [4] deals with Nucleic Acid. Briefly: Induction of thermal cleavage in protein free alpha satellite DNA 5'-GAAACT-3' at 10 uM at 25 degC after 17 hrs by non-denaturating gel electrophoresis.
The test system of experiment [5] is Nucleic Acid. Briefly: Induction of DNA alkylation-mediated […] at 25 degC after 16 hrs by non-denaturating gel electrophoresis.
Experiment [6] concerns Nucleic Acid. Nature of the experiment: Induction of thermal cleavage in alpha satellite DNA 5'-CAAAAG-3' in […] at 10 uM at 25 degC after 17 hrs by non-denaturating gel electrophoresis.
The test system of experiment [7] is Nucleic Acid. Briefly: Induction of thermal cleavage in alpha satellite DNA 5'-GGAAAC-3' in […] at 10 uM at 25 degC after 17 hrs by non-denaturating gel electrophoresis.
Experiment [8] has as its system Nucleic Acid. Nature of the experiment: Induction of thermal cleavage in protein free alpha satellite DNA 5'-CAAAAG-3' at 10 uM at 25 degC after 1 hr by non-denaturating gel electrophoresis.
The subject of experiment [9] is Nucleic Acid. Nature of the experiment: Induction of thermal cleavage in alpha satellite DNA at 10 uM at 25 degC after 1 hr by non-denaturating gel electrophoresis.
Experiment [10] concerns Nucleic Acid. Briefly: Induction of thermal cleavage in alpha satellite DNA at 10 uM at 25 degC after 30 mins by non-denaturating gel electrophoresis.

Activity calls are given as the source filed them. No cut-off for these calls is given here.

On to `COc1cc2[nH]c(C(=O)N3C[C@@H]4C[C@]45C3=CC(=O)c3[nH]c(C(=O)N4CCc6c4c(O)c(OC)c4[nH]c(C(=O)SC)cc64)cc35)cc2cc1O`, for which the result in [1], in [2], in experiment [3] and in [4] was Active.
In the case of `COc1cc2[nH]c(C(=O)N3C[C@H]4C[C@@]45C3=CC(=O)c3[nH]c(C(=O)N4CCc6c4c(O)c(OC)c4[nH]c(C(=O)SC)cc64)cc35)cc2cc1O`, the outcome in experiment [5], in [6], in experiment [7], in experiment [2], in [3] and in experiment [8] was Active.
For the compound `COC(=O)c1cc2c([nH]1)C(=O)C=C1N(C(=O)c3cc4cc(OC)c(OC)c(OC)c4[nH]3)C[C@H]3C[C@]123`, the result in [9], in experiment [2] and in [3] was Active. Also, the Activity in experiment [10] amounted to 1 ×10⁻⁵ M.
